The source of these data is article PMC12349723, “Computationally accelerated identification of P-glycoprotein inhibitors” (PLOS One, 2025).

The structures appear in SMILES notation.

Data set [1] has as its target T1, P-gp (Homo sapiens, UniProt P08183).
T1 construct: The MDR, P-gp overexpressing DU145-TXR cells were maintained under positive selection pressure; endogenous in cells; host or cells: DU145-TXR (paclitaxel-resistant sub-line of DU145 human prostate cancer cells)
Kind of data set: Top Hit classification from combined in vitro criteria. The following applies: reverse MDR, do not increase PTX toxicity in chemo-sensitive cancer cells, non-toxic to noncancerous cells, not P-gp substrates.

The nature of data set [2]: SWISS-ADME computational analysis of chemical properties. Conditions: predicted aqueous solubility compared to that observed in the laboratory. The text has this:
Identifying P-gp inhibitors that are not transport substrates remains inherently challenging. To that end, computational tools such as the SWISS-ADME server attempt to use a molecule’s unique chemical and structural characteristics to predict whether it is likely to be a P-gp transport substrate. Our LC-MS/MS assays allowed us to retroactively test the validity of predictions from SWISS-ADME. […] Alternative identifiers for the molecules identified in this study are shown in S7 Table.
S1 Table. Known P-gp Inhibitors and Predicted Chemical Properties. A non-exhaustive list of known P-gp inhibitors and their selected chemical properties ^[64, 65]. Clinical trial outcomes were adapted from ^[10, 11]. Compounds were evaluated using the SWISS-ADME server ^[54]. […] “Predicted P-gp Substrate” - predicted by SWISS-ADME to be a transport substrate of P-gp. “Known P-gp Substrate” – In addition to being P-gp inhibitors, these molecules are: known transport substrates of P-gp, known non-transport substrates of P-gp, unknown whether it is a transport substrate of P-gp ^[66-68]. If the molecule is designated in a specific generation of P-gp inhibitors - First Generation P-gp inhibitors, Second generation P-gp inhibitors, Third generation P-gp inhibitors.

Data set [3] is described as follows: Resazurin cell viability pre-screen in DU145-TXR cells with or without PTX. The data set is classed as cell-based. The following applies: human, mean of two experiments in triplicate, read-out: Viability, 15 µM compound alone. As to the method: Culture of the DU145, DU145-TXR, and HFL1 cell lines was performed as described in [8]. Culture of the A2780 and A2780-ADR cell lines was performed as described in [9]. MTT assays were performed as described in [8] with minor modifications. LC-MS/MS accumulation assays were performed as described in {Nanayakkara, 2018 #173} [9] with some modifications. […] The inhibitor concentration was lowered to 15 µM here, as the goal of the study was to identify compounds that were effective in reversing MDR at low concentrations, and to determine if the expanded virtual-assisted methods improved on our first-draft attempt. Compounds 56–98 were pre-screened using Resazurin cell viability assays: cells were incubated with 15 µM compound with or without 500 nM PTX for 48 hours, after which cell survival was assessed similar to [39]. Data represent the mean of two separate experiments, with n = 3 samples per experiment (n = 6 total) (S4 Table). The top performing compounds from this initial screen were re-tested with MTT viability assays against DU145-TXR cells, as described below.
S4 Table. Pre-screening of compounds 56 – 98 against DU145-TXR cells with resazurin assays. DU145-TXR cells were incubated with 15 µM compound with or without 500nM PTX for 48 hrs; survival was subsequently determined with the Resazurin viability assay ^[37]. […] Percent re-sensitization is defined as the percent change in viability between cells treated with compound and PTX, versus cells treated with PTX alone. In some instances, the assay reported an increase in viability with compound + PTX, and no percent sensitization is reported. ‘Follow-up Testing’ compounds were re-assessed with MTT assays (Figure 1). Compounds 59 and 89 (*, ‘Follow-up Testing’) were used as negative controls in follow-up MTT assays to test for consistency of results, e.g. to confirm that molecules eliminated in Resazurin assays were justifiably eliminated from later screening with MTT assays.
A general note: Alamar Blue is a resazurin reagent that responds to reducing activity.

In data set [4] the target is T1, P-gp. The data set is described as follows: LC-MS/MS intracellular accumulation assay with or without tariquidar (P-gp transport substrate test) in DU145-TXR cells. The data set is classed as in vitro ADME. The protocol: DU145-TXR cells were seeded at 350,000 cells per well in 6-well plates in complete RPMI medium. […] A full sample of DAU was also prepared for quantitative analysis. […] Media was removed with a glass vacuum aspirator. Cells were re-suspended and washed in 2mL of ice-cold Hank’s Balanced Salt Solution (HBSS, Gibco), and spun again at 2400 rpm. Cell lysates were diluted in 600 µL of ice-cold HBSS, flash-frozen in liquid nitrogen, and stored at −80 °C until analysis. LC-MS/MS intracellular accumulation assays were performed in collaboration with the Pharmacology Core at the University of Texas Southwestern Medical Center (UTSW). […] This method allowed us to quantify the change – if any – in the relative amount of compound present in the samples when TQR was added. An increase in the relative amount of compound indicates enhanced intracellular retention that compound. […] The “Internal Standard” (IS) is a known substance added in a constant amount to each sample. The “Peak Area”, expressed as “counts”, describes the number of MS/MS spectra from the experimental compound and serves as a measure of its relative abundance. […] These values allow a comparison of the relative abundance of compound between the “- TQR” and “+ TQR” samples, and to test for statistically significant differences. LC-MS/MS quantification was performed as follows. Cell lysate was aliquoted into Eppendorf tubes. In contrast to [9], blank cell lysates were not spiked with varying concentrations of each compound to create a standard curve, since compound amounts were normalized to abundance of the internal standard. […] The supernatant was then transferred to an HPCL vial, and subsequently analyzed using LC-MS/MS using a Sciex 4000QTRAP mass spectrometer coupled to a Shimadzu Prominence LC. […] The column flow rate was 1.5 ml/min using an Agilent C18 XDB, 5 micron packing 50 × 4.6 mm column. […] A BSA standard curve was then prepared in water and mixed using the same ratio. […] The ratio of Analyte to Internal Standard was normalized to the lysate content for each individual sample. […] Statistical significance was determined using a Student’s T Test in GraphPad Prism. We aimed to identify P-gp inhibitors that are not transport substrates of the pump itself. […] To test these predictions in vitro, liquid chromatography with tandem mass spectrometry (LC-MS/MS) was used to assess the intracellular accumulation of experimental compounds as described in [9]. […] The relative intracellular accumulation of each experimental compound was then assessed using LC-MS/MS. […] The P-gp substrate and chemotherapeutic daunorubicin (DAU) was used as a positive control for P-gp-mediated transport.

Data set [5] deals with HFL1 (human lung fibroblast) cell line. The data set is described as follows: MTT viability assay, inherent toxicity in non-cancerous HFL1 cells. The class given is cell-based. The following applies: HFL1 cells, compound alone, mean of 8 samples. The protocol:
The chemotherapeutic sensitive DU145 human prostate cancer cells and the multidrug resistant sub-line, DU145-TXR, were generous gifts from Dr. Evan Keller (University of Michigan, Ann Arbor, MI). The MDR, P-gp overexpressing DU145-TXR cells were maintained under positive selection pressure by supplementing complete medium with 10 nM paclitaxel (Acros Organics, NJ). […] The MDR, P-gp overexpressing A2780-ADR cell line was maintained under positive selection pressure by supplementing complete medium with 100 nM doxorubicin (Fisher Scientific, NJ). The non-cancerous HFL1 (human lung fibroblast) cell line cell line was a generous gift from Dr. Robert Harrod (Southern Methodist University, Dallas, TX) and was maintained in complete F12K media consisting of F12K with 10% fetal bovine serum, 100 U/mL penicillin, and 100 µg/mL streptomycin (Gibco). Flasks and 96 well plates that were used with the non-cancerous line HFL1 were pre-treated with 0.1 mg/ml Collagen Type 1 (Gibco) and rinsed with PBS (Fisher).
MTT assays measure the reduction of yellow, water soluble 3-(4,5-dimethylthiazol-2-yl)-2,5-diphenyltetrazolium bromide (MTT) to blue, insoluble formazan crystals by cellular reductase processes in living cells. Cells were trypsinized from monolayers and seeded in complete medium in 96 well plates. Cancerous cell lines (DU145, DU145-TXR, A2780, A2780-ADR) were seeded at 3,000 cells per well in complete RPMI medium. The non-cancerous HFL1 line was seeded at 4,000 cells per well in complete F12K medium, in collagen-treated plates (Collagen Type 1, Gibco). Cells were incubated with experimental compounds for 48 hours at 37 °C and 5% CO2 in a humidified incubator. At 48 hours, MTT was added (20 µL/well of 5 mg/mL MTT in PBS) to each well. After incubation for 4 hours, the media was removed, and the formazan crystals were dissolved in 100 µL DMSO per well. Plates containing the semi-adherent A2780 or A2780-ADR lines were spun at 1400 rpm for 3 minutes prior to aspiration of media, and the addition of DMSO. Plates were shaken for 10 minutes at 500 rpm on an Orbital shaker (LabDoctor from MidSci, St Louis, MO). The absorbance was measured at 570 nm using a Bio-Tek Cytation 5 (Bio-Tek, Winooski, VT). The measured absorbance value was correlated with the number of metabolically active cells in that well, corrected for absorbance of media. The percent of cell viability (termed ‘survival’ here) was calculated as a percentage of survival of the control condition, which refers to vehicle-treated (DMSO as vehicle) cells, or vehicle-and-chemotherapeutic-treated cells, if testing a compound’s ability to re-sensitize cells to a chemotherapeutic. Percent survival was calculated using the following equation:
% Survival=100 × absorbance of experimental cells/mean absorbance of control treated cells
For DU145-TXR, DU145, HFL1 and A2780 cells – data are the mean ± one standard deviation, 8 samples per compound, from at least two independent trials per compound. […] For A2780-ADR cells, data are the mean ± one standard deviation with 12 samples per compound, from at least two independent trials per compound.
If a P-gp inhibitor is intrinsically toxic to non-cancerous cells, it is more likely to be participating in undesirable off-target interactions. The top compounds from the screens shown above were screened for inherent toxicity using the non-cancerous HFL1 (human lung fibroblast) cell line. HFL1 cells were incubated with 15 µM compound for 48 hours, after which cell viability was assessed using MTT cell viability assays. A 20% reduction in cell viability (compared to DMSO-treated cells) was considered the maximum acceptable toxicity (see dotted line). The chemotherapeutic daunorubicin was included as a positive control for toxicity.
The top compounds from previous screens were tested against the non-cancerous HFL1 cell line.

Data set [6] relates to DU145-TXR cells. Conditions: cited from earlier work.
Data set [7] has as its system DU145 cells. Further details: method as in PMID 26516582. Conditions: ref [8]; cited from earlier work.
Data set [8] concerns P-gp. Further details: method as in earlier work. Conditions: ref [66-68]; cited from earlier work.
Setting [9] is: DU145-TXR, 5 µM compound, 2.5 h, with 500 nM tariquidar, mean ± SD, triplicate.
Setting [10] is: DU145-TXR, 5 µM compound, 2.5 h, without tariquidar, mean ± SD, triplicate.
[11] abbreviates: significant difference = likely P-gp transport substrate.

The viability is the share of living cells, or the viability signal relative to a control.

T1 sequence (P08183 whole entry): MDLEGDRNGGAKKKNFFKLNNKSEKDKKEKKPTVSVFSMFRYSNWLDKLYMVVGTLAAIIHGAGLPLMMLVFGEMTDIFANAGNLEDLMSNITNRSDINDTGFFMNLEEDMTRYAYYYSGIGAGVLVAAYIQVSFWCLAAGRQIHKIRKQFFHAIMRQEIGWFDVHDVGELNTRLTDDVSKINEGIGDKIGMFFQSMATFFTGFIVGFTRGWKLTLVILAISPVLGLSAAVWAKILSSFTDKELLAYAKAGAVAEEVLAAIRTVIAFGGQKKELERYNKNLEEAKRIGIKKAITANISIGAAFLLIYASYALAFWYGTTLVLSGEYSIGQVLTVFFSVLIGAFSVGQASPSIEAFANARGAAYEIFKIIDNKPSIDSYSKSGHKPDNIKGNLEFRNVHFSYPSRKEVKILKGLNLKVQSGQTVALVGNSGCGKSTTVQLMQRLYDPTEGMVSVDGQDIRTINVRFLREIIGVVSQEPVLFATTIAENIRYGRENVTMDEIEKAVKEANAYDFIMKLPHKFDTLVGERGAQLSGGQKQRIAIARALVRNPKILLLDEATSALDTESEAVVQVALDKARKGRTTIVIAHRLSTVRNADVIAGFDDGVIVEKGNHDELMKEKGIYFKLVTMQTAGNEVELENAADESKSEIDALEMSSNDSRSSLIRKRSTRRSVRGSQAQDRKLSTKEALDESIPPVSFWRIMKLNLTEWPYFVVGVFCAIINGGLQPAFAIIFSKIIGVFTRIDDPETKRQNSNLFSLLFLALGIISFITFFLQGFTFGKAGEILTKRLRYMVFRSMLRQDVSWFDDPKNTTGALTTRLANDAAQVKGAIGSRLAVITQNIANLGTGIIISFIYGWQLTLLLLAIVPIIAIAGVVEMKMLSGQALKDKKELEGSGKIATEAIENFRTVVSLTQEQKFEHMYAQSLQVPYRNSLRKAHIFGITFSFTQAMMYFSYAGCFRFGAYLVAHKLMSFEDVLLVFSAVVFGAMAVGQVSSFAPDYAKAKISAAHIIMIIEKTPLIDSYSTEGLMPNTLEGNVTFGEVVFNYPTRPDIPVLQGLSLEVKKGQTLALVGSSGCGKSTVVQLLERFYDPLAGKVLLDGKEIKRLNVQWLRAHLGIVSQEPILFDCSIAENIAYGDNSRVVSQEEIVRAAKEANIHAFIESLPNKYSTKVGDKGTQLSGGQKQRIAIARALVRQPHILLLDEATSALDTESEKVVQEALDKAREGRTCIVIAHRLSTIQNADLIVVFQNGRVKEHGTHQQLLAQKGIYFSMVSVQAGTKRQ

As for `Cc1cccc(C2CC(=O)c3cnn(-c4nc5ccccc5[nH]4)c3C2)c1` (stereo not shown) [Compound 79, Cc1cccc(c1)C1Cc2c(cnn2-c2nc3ccccc3[nH]2)C(=O)C1], the “Top Hit” value in data set [1] is reported as “No”. In data set [2], the “Correct Water Solubility Prediction?” value was “Yes”. In data set [3], the viability at 48 h, 15 µM was 89.9%.

On to `COc1cccc2c1C(=O)c1c(O)c3c(c(O)c1C2=O)C[C@@](O)(C(C)=O)C[C@@H]3O[C@H]1C[C@H](N)[C@H](O)[C@H](C)O1` [Daunorubicin, reference compound], for which, in data set [4] (setting [9]), the “Intracellular accumulation (normalized ratio of compound to internal standard), Trial 1, + TQR” value was 0.216 ± 0.002 and the “Intracellular accumulation (normalized ratio of compound to internal standard), Trial 2, + TQR” value is reported as 0.232 ± 0.016. In data set [4] (setting [10]), the “Intracellular accumulation (normalized ratio of compound to internal standard), Trial 1, - TQR” value amounted to 0.014 ± 0.001 and the “Intracellular accumulation (normalized ratio of compound to internal standard), Trial 2, - TQR” value is 0.017 ± 0.001. Besides, the “P (- TQR vs + TQR), Trial 2” value in data set [4] (Student's T test of the mean) was 2x10^-5. Further, the “P (- TQR vs + TQR), Trial 1” value in data set [4] (Student's T test of the mean, listed as DAU) is < 1x10^-6. Also, in data set [4] (setting [11]), the “Significance of accumulation with tariquidar, Trial 1” value is listed as “**** (P < 0.0001 = ****)” and the “Significance of accumulation with tariquidar, Trial 2” value is given as “**** (P < 0.0001 = ****)”. Also, the “Mean % Survival” value in data set [5] was 18.1%.

With `CC(=O)O[C@H]1C(=O)[C@@]2(C)[C@H]([C@H](OC(=O)c3ccccc3)[C@]3(O)C[C@H](OC(=O)[C@H](O)[C@@H](NC(=O)c4ccccc4)c4ccccc4)C(C)=C1C3(C)C)[C@]1(OC(C)=O)CO[C@@H]1C[C@@H]2O` [Paclitaxel, paclitaxel], the “Survival of DU145-TXR cells at 500 nmol/L PTX” value in data set [6] (500 nmol/L PTX, ref [8]) is “greater than 85%”. Besides, in data set [6] (DU145-TXR vs DU145 parental cells, ref [38]), the “Increase in the IC50 of PTX in DU145-TXR relative to DU145 cells” value was 34 fold. The “Survival of DU145 parental cells at 500 nmol/L PTX” value in data set [7] is recorded as “less than 10%”.

Consider `C=C[C@H]1C[N@@]2CC[C@H]1C[C@@H]2[C@@H](O)c1ccnc2ccc(OC)cc12` [Quinidine], for which the “P-gp Substrate? (known transport substrate of P-gp)” value (from here on “P-gp Substrate?”) in data set [8] is “Yes”.

Consider `COC(=O)[C@H]1[C@H]2C[C@@H]3c4[nH]c5cc(OC)ccc5c4CCN3C[C@H]2C[C@@H](OC(=O)c2cc(OC)c(OC)c(OC)c2)[C@@H]1OC` [Reserpine], for which the “P-gp Substrate?” value in data set [8] was “No”.

Consider `C/C=C/C[C@@H](C)C(=O)[C@H]1C(=O)N[C@@H](C(C)C)C(=O)N(C)CC(=O)N(C)[C@@H](CC(C)C)C(=O)N[C@@H](C(C)C)C(=O)N(C)[C@@H](CC(C)C)C(=O)N[C@@H](C)C(=O)N[C@H](C)C(=O)N(C)[C@@H](CC(C)C)C(=O)N(C)[C@@H](CC(C)C)C(=O)N(C)[C@@H](C(C)C)C(=O)N1C` [Valspodar], for which the “P-gp Substrate?” value in data set [8] is “No”.

For the molecule `O[C@@H](COc1cccc2ncccc12)CN1CCN([C@@H]2c3ccccc3[C@@H]3[C@H](c4ccccc42)C3(F)F)CC1` [Zosuquidar], in data set [8], the “P-gp Substrate?” value is on record as “Yes”.
